Experimental data as given in US20250019387A1 (Frontier Medicines Corporation, priority 0001, published 2025).
pIC50: −log10 of the molar value.

These molecules were tested against KRAS G12C and cRAF (Ras-binding domain) interaction (Homo sapiens (Human), UniProt P01116, C118S/C51S/C80L/G12C) (assay: Inhibition of KRAS G12C and cRAF binding (AlphaScreen)). Details: GMPPNP-loaded KRAS G12C, 19-20 hours incubation with compound; read-out: IC50 (Inhibition of KRAS G12C and cRAF Binding).
Method in brief: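 Compounds (DMSO) preincubated 19-20 h at room temperature, then RBD with streptavidin donor and glutathione acceptor beads added in 25 mM Hepes pH 7.4, 150 mM NaCl, 5 mM MgCl2, 0.01% Triton X-100, 2% DMSO for 60-90 min. Emission 570 nm (excitation 680 nm); IC50 by 4-parameter fit. Counter-screen used biotin-AviTag-GST instead of RBD.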

KRAS G12C and cRAF (Ras-binding domain) interaction, sequence (P01116 other isoform, or with tags, fused parts or gaps G12C/C51S/C80L/C118S): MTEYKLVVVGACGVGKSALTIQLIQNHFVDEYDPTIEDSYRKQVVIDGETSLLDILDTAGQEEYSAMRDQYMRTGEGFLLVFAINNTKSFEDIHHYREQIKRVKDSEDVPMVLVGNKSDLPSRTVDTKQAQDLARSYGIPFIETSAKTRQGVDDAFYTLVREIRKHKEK

| SMILES | pIC50 |
| --- | --- |
| CN(CCNC(=O)/C=C/S(C)(=O)=O)c1nc(OC[C@@H]2CCCN2C)nc2c1CCN(c1cccc3cccc(Cl)c13)C2 [Example 23, (S,E)-N-(2-((7-(8-chloronaphthalen-1-yl)-2-((1-methylpyrrolidin-2-yl)methoxy)-5,6,7,8-tetrahydropyrido[3,4-d]pyrimidin-4-yl)(methyl)amino)ethyl)-3-(methylsulfonyl)acrylamide] | 7.00 to 8.00 |
| COC(=O)/C=C/C(=O)N1CCC(N(C)c2nc(OC[C@@H]3CCCN3C)nc3c(F)c(-c4cccc5cccc(Cl)c45)ncc23)C1 (stereo partly drawn) [Example 24, methyl(E)-4-(3-((7-(8-chloronaphthalen-1-yl)-8-fluoro-2-(((S)-1-methylpyrrolidin-2-yl)methoxy)pyrido[4,3-d]pyrimidin-4-yl)(methyl)amino)pyrrolidin-1-yl)-4-oxobut-2-enoate] | > 8.00 |
| COC(=O)/C=C/C(=O)N1CC(CN(C)c2nc(OCC34CCCN3CCC4)nc3c(F)c(-c4cccc5cccc(Cl)c45)ncc23)C1 [Example 25, methyl(E)-4-(3-(((7-(8-chloronaphthalen-1-yl)-8-fluoro-2-((tetrahydro-1H-pyrrolizin-7a(5H)-yl)methoxy)pyrido[4,3-d]pyrimidin-4-yl)(methyl)amino)methyl)azetidin-1-yl)-4-oxobut-2-enoate] | > 8.00 |
| COC(=O)/C=C/C(=O)N1CC[C@H](N(C)c2nc(OC[C@@H]3CCCN3C)nc3c(F)c(-c4cccc5cccc(Cl)c45)ncc23)C1 [Example 26, methyl(E)-4-((S)-3-((7-(8-chloronaphthalen-1-yl)-8-fluoro-2-(((S)-1-methylpyrrolidin-2-yl)methoxy)pyrido[4,3-d]pyrimidin-4-yl)(methyl)amino)pyrrolidin-1-yl)-4-oxobut-2-enoate] | < 6.30 |
| COC(=O)/C=C/C(=O)N1CC[C@@H](N(C)c2nc(OC[C@@H]3CCCN3C)nc3c(F)c(-c4cccc5cccc(Cl)c45)ncc23)C1 [Example 27, methyl(E)-4-((R)-3-((7-(8-chloronaphthalen-1-yl)-8-fluoro-2-(((S)-1-methylpyrrolidin-2-yl)methoxy)pyrido[4,3-d]pyrimidin-4-yl)(methyl)amino)pyrrolidin-1-yl)-4-oxobut-2-enoate] | > 8.00 |
| CN(c1nc(OC[C@@H]2CCCN2C)nc2c1CCN(c1cccc3cccc(Cl)c13)C2)C1CCN(C#N)C1 (stereo partly drawn) [Example 29, 3-((7-(8-chloronaphthalen-1-yl)-2-(((S)-1-methylpyrrolidin-2-yl)methoxy)-5,6,7,8-tetrahydropyrido[3,4-d]pyrimidin-4-yl)(methyl)amino)pyrrolidine-1-carbonitrile] | 6.30 to 7.00 |
| CN1CCC[C@H]1COc1nc2c(c(N3CCC(CNC#N)CC3)n1)CCN(c1cccc3cccc(Cl)c13)C2 [Example 32, (S)-N-((1-(7-(8-chloronaphthalen-1-yl)-2-((1-methylpyrrolidin-2-yl)methoxy)-5,6,7,8-tetrahydropyrido[3,4-d]pyrimidin-4-yl)piperidin-4-yl)methyl)cyanamide] | < 6.30 |
| CN(CCC1CN(C#N)C1)c1nc(OC[C@@H]2CCCN2C)nc2c1CCN(c1cccc3cccc(Cl)c13)C2 [Example 34, (S)-3-(2-((7-(8-chloronaphthalen-1-yl)-2-((l-methylpyrrolidin-2-yl)methoxy)-5,6,7,8-tetrahydropyrido[3,4-d]pyrimidin-4-yl)(methyl)amino)ethyl)azetidine-1-carbonitrile] | 6.30 to 7.00 |
| CN(c1nc(OC[C@@H]2CCCN2C)nc2c(F)c(-c3cccc4cccc(Cl)c34)ncc12)C1CCN(C#N)C1 (stereo partly drawn) [Example 35, 3-((7-(8-chloronaphthalen-1-yl)-8-fluoro-2-(((S)-1-methylpyrrolidin-2-yl)methoxy)pyrido[4,3-d]pyrimidin-4-yl)(methyl)amino)pyrrolidine-1-carbonitrile] | 7.00 to 8.00 |
| C[C@@H]1C[C@@H](N(C)c2nc(OC[C@@H]3CCCN3C)nc3c2CCN(c2cccc4cccc(Cl)c24)C3)CN1C#N [Example 38, (2R,4R)-4-((7-(8-chloronaphthalen-1-yl)-2-(((S)-1-methylpyrrolidin-2-yl)methoxy)-5,6,7,8-tetrahydropyrido[3,4-d]pyrimidin-4-yl)(methyl)amino)-2-methylpyrrolidine-1-carbonitrile] | < 6.30 |
| CN(c1nc(OCC23CCCN2CCC3)nc2c1CCN(c1cccc3cccc(Cl)c13)C2)[C@@H]1CCN(C#N)C1 [Example 39, (R)-3-((7-(8-chloronaphthalen-1-yl)-2-((tetrahydro-1H-pyrrolizin-7a(5H)-yl)methoxy)-5,6,7,8-tetrahydropyrido[3,4-d]pyrimidin-4-yl)(methyl)amino)pyrrolidine-1-carbonitrile] | 6.30 to 7.00 |
| C=CC(=O)CN(C)c1nc(OC[C@@H]2CCCN2C)nc2c1CCN(c1cccc3cccc(Cl)c13)C2 [Example 40, (S)-1-((7-(8-chloronaphthalen-1-yl)-2-((1-methylpyrrolidin-2-yl)methoxy)-5,6,7,8-tetrahydropyrido[3,4-d]pyrimidin-4-yl)(methyl)amino)but-3-en-2-one] | 7.00 to 8.00 |
| C=CC(=O)[C@@H]1[C@@H]2CN(c3nc(OC[C@@H]4CCCN4C)nc4c3CCN(c3cccc5cccc(Cl)c35)C4)C[C@@H]21 [Example 45, 1-((1R,5S,6R)-3-(7-(8-chloronaphthalen-1-yl)-2-(((S)-1-methylpyrrolidin-2-yl)methoxy)-5,6,7,8-tetrahydropyrido[3,4-d]pyrimidin-4-yl)-3-azabicyclo[3.1.0]hexan-6-yl)prop-2-en-1-one] | 7.00 to 8.00 |
| C=CS(=O)(=O)CCN(C)c1nc(OC[C@@H]2CCCN2C)nc2c1CCN(c1cccc3cccc(Cl)c13)C2 [Example 47, (S)-7-(8-chloronaphthalen-1-yl)-N-methyl-2-((1-methylpyrrolidin-2-yl)methoxy)-N-(2-(vinylsulfonyl)ethyl)-5,6,7,8-tetrahydropyrido[3,4-d]pyrimidin-4-amine] | 7.00 to 8.00 |

The remaining lines, values ahead:

| pIC50 | SMILES |
| --- | --- |
| 6.30 to 7.00 | COC(=O)/C=C/C(=O)NCCN(C)c1nc(OC[C@@H]2CCCN2C)nc2c1CCN(c1cccc3cccc(Cl)c13)C2 [Example 22, methyl(S,E)-4-((2-((7-(8-chloronaphthalen-1-yl)-2-((1-methylpyrrolidin-2-yl)methoxy)-5,6,7,8-tetrahydropyrido[3,4-d]pyrimidin-4-yl)(methyl)amino)ethyl)amino)-4-oxobut-2-enoate] |
| 7.00 to 8.00 | CN(CC1CN(C#N)C1)c1nc(OCC23CCCN2CCC3)nc2c(F)c(-c3cccc4cccc(Cl)c34)ncc12 [Example 28, 3-(((7-(8-chloronaphthalen-1-yl)-8-fluoro-2-((tetrahydro-1H-pyrrolizin-7a(5H)-yl)methoxy)pyrido[4,3-d]pyrimidin-4-yl)(methyl)amino)methyl)azetidine-1-carbonitrile] |
| < 6.30 | CN(CC1CN(C#N)C1)c1nc(OC[C@@H]2CCCN2C)nc2c1CCN(c1cccc3cccc(Cl)c13)C2 [Example 30, (S)-3-(((7-(8-chloronaphthalen-1-yl)-2-((1-methylpyrrolidin-2-yl)methoxy)-5,6,7,8-tetrahydropyrido[3,4-d]pyrimidin-4-yl)(methyl)amino)methyl)azetidine-1-carbonitrile] |
| < 6.30 | CN(CC1CCN(C#N)C1)c1nc(OC[C@@H]2CCCN2C)nc2c1CCN(c1cccc3cccc(Cl)c13)C2 (stereo partly drawn) [Example 31, 3-(((7-(8-chloronaphthalen-1-yl)-2-(((S)-1-methylpyrrolidin-2-yl)methoxy)-5,6,7,8-tetrahydropyrido[3,4-d]pyrimidin-4-yl)(methyl)amino)methyl)pyrrolidine-1-carbonitrile] |
| 6.30 to 7.00 | CN1CCC[C@H]1COc1nc2c(c(N(C)[C@@H]3CCN(C#N)C3)n1)CCN(c1cccc3cccc(Cl)c13)C2 [Example 33, (R)-3-((7-(8-chloronaphthalen-1-yl)-2-(((S)-1-methylpyrrolidin-2-yl)methoxy)-5,6,7,8-tetrahydropyrido[3,4-d]pyrimidin-4-yl)(methyl)amino)pyrrolidine-1-carbonitrile] |
| 7.00 to 8.00 | CN1CCC[C@H]1COc1nc(N(C)[C@@H]2CCN(C#N)C2)c2cnc(-c3cccc4cccc(Cl)c34)c(F)c2n1 [Example 36, (R)-3-((7-(8-chloronaphthalen-1-yl)-8-fluoro-2-(((S)-1-methylpyrrolidin-2-yl)methoxy)pyrido[4,3-d]pyrimidin-4-yl)(methyl)amino)pyrrolidine-1-carbonitrile] |
| 6.30 to 7.00 | CN1CCC[C@H]1COc1nc2c(c(N3CC[C@@H]4CN(C#N)C[C@@H]43)n1)CCN(c1cccc3cccc(Cl)c13)C2 [Example 37, (3aR,6aR)-1-(7-(8-chloronaphthalen-1-yl)-2-(((S)-1-methylpyrrolidin-2-yl)methoxy)-5,6,7,8-tetrahydropyrido[3,4-d]pyrimidin-4-yl)hexahydropyrrolo[3,4-b]pyrrole-5(1H)-carbonitrile] |
| 7.00 to 8.00 | C=CC(=O)C1CN(c2nc(OC[C@@H]3CCCN3C)nc3c2CCN(c2cccc4cccc(Cl)c24)C3)C1 [Example 41, (S)-1-(1-(7-(8-chloronaphthalen-1-yl)-2-((1-methylpyrrolidin-2-yl)methoxy)-5,6,7,8-tetrahydropyrido[3,4-d]pyrimidin-4-yl)azetidin-3-yl)prop-2-en-1-one] |
| 7.00 to 8.00 | C=CC(=O)C1CCN(c2nc(OC[C@@H]3CCCN3C)nc3c2CCN(c2cccc4cccc(Cl)c24)C3)CC1 [Example 42, (S)-1-(1-(7-(8-chloronaphthalen-1-yl)-2-((1-methylpyrrolidin-2-yl)methoxy)-5,6,7,8-tetrahydropyrido[3,4-d]pyrimidin-4-yl)piperidin-4-yl)prop-2-en-1-one] |
| < 6.30 | C=CS(=O)(=O)CCCN(C)c1nc(OC[C@@H]2CCCN2C)nc2c1CCN(c1cccc3cccc(Cl)c13)C2 [Example 46, (S)-7-(8-chloronaphthalen-1-yl)-N-methyl-2-((1-methylpyrrolidin-2-yl)methoxy)-N-(3-(vinylsulfonyl)propyl)-5,6,7,8-tetrahydropyrido[3,4-d]pyrimidin-4-amine] |
